The source made the active and inactive calls.
Columns and labels:
Histone deacetylase 1 = Histone deacetylase 1 (Homo sapiens, UniProt Q13547); experiment: Induction of HDAC1 degradation in human RS4-11 cells at 0.5 to 10 uM incubated for 12 hrs by Western blotting analysis; format: cell-based; details: dose 0.5-10 µM
[1] = biological target: T1, Protein deacetylase HDAC6 (Homo sapiens) (UniProt Q9UBN7); experiment: Induction of HDAC6 degradation in human RS4-11 cells at 0.5 to 10 uM incubated for 12 hrs by Western blotting analysis; format: cell-based; details: dose 0.5-10 µM
T1 sequence (whole entry): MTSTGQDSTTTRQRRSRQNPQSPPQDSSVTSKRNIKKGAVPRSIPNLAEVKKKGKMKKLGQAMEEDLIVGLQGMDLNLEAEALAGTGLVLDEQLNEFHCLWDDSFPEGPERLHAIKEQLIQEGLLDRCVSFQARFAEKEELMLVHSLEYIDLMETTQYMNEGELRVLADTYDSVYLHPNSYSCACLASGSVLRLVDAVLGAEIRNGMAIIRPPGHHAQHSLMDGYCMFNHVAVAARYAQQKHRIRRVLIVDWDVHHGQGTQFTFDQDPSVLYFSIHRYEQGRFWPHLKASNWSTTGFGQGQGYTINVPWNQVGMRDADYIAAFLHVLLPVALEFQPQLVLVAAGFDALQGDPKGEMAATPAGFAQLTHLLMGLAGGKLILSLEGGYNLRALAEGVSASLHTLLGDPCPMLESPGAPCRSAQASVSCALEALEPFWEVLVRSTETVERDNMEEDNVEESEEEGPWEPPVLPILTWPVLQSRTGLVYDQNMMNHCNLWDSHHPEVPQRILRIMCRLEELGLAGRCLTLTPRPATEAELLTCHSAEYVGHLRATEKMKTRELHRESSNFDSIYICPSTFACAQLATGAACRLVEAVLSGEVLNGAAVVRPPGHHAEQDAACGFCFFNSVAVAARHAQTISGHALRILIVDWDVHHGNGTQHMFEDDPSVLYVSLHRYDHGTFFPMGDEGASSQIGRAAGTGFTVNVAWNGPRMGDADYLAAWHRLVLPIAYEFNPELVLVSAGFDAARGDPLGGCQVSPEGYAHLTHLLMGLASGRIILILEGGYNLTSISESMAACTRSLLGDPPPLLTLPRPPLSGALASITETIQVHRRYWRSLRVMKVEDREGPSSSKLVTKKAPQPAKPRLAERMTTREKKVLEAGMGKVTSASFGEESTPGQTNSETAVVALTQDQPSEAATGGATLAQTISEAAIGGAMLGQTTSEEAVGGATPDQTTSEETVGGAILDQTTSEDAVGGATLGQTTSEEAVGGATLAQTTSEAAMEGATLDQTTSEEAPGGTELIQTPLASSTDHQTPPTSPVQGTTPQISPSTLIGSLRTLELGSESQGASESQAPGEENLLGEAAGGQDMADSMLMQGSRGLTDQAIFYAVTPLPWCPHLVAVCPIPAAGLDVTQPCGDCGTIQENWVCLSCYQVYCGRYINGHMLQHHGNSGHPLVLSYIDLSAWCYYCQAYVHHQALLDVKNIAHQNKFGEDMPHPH

A549 = experiment: Antiproliferative activity against human A549 cells assessed as cell growth inhibition at 5 uM incubated for 48 hrs by CCK-8 assay; format: functional, cell-based
HCT-116 = experiment: Antiproliferative activity against human HCT-116 cells assessed as cell growth inhibition at 5 uM incubated for 48 hrs by CCK-8 assay; format: functional, cell-based
HeLa = experiment: Antiproliferative activity against human HeLa cells assessed as cell growth inhibition at 5 uM incubated for 48 hrs by CCK-8 assay; format: functional, cell-based

Measured: Activity

Sequence of Histone deacetylase 1 (Q13547 whole entry): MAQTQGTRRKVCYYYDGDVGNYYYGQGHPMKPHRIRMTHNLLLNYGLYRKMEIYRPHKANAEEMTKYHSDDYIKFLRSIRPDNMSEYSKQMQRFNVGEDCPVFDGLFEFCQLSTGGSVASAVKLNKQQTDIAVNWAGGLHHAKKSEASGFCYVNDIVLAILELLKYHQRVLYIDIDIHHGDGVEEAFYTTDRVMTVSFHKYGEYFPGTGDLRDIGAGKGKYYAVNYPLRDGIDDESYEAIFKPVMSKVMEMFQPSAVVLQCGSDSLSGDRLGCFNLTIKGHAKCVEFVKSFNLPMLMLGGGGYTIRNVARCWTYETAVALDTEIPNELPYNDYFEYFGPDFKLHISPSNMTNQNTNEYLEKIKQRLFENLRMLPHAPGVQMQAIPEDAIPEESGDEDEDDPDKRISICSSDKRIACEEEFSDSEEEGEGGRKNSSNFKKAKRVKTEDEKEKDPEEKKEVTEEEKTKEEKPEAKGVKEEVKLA

O=C(CCCCNc1cccc2c1C(=O)N(C1CCC(=O)NC1=O)C2=O)NO (stereo not given)
inactive: all assays above

Nc1cccc2c1C(=O)N(C1CCC(=O)NC1=O)C2=O (stereo not given)
inactive: all assays above

O=C1CCC(N2C(=O)c3cccc(NCCOCCn4cc(C(=O)NO)nn4)c3C2=O)C(=O)N1 (stereo not given)
inactive: all assays above

Nc1ccccc1NC(=O)CCCCNc1cccc2c1C(=O)N(C1CCC(=O)NC1=O)C2=O (stereo not given)
inactive: all assays above

Nc1cc(F)ccc1NC(=O)CCCCCCNc1cccc2c1C(=O)N(C1CCC(=O)NC1=O)C2=O (stereo not given)
inactive: all assays above

O=C(CCCNc1cccc2c1C(=O)N(C1CCC(=O)NC1=O)C2=O)NCCS (stereo not given)
inactive: all assays above

CCNNC(=O)CCCCCCNc1cccc2c1C(=O)N(C1CCC(=O)NC1=O)C2=O (stereo not given)
inactive: all assays above

O=C(CCCCNc1cccc2c1C(=O)N(C1CCC(=O)NC1=O)C2=O)NCCS (stereo not given)
inactive: all assays above

Nc1cc(F)ccc1NC(=O)CCCCCCCNc1cccc2c1C(=O)N(C1CCC(=O)NC1=O)C2=O (stereo not given)
inactive: all assays above

CCCNNC(=O)CCCCCCNc1cccc2c1C(=O)N(C1CCC(=O)NC1=O)C2=O (stereo not given)
inactive: all assays above

O=C(CCCCCCNc1cccc2c1C(=O)N(C1CCC(=O)NC1=O)C2=O)NCCS (stereo not given)
inactive: all assays above

Nc1cc(F)ccc1NC(=O)c1cn(CCOCCNc2cccc3c2C(=O)N(C2CCC(=O)NC2=O)C3=O)nn1 (stereo not given)
inactive: all assays above

O=C1CCC(N2C(=O)c3cccc(NCCOCCOCCOCCn4cc(C(=O)NCCS)nn4)c3C2=O)C(=O)N1 (stereo not given)
inactive: all assays above

Source: ChEMBL document CHEMBL5532657, “Serendipitous discovery of Class I HDAC inhibitors from rational design of molecular glue degraders targeting HDAC” (Eur J Med Chem, 2024)
